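Briefly, cells in 96-well plates were exposed to five compound concentrations for 48 h, and endpoints were estimated by linear interpolation. GI50 is the concentration that inhibits growth by half. The concentration for full growth arrest is given as TGI.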
What was measured:
Experiment in all cases: NCI-60 cell line screen, 48 h
786-0 renal = test system: 786-0 renal
A498 renal = test system: A498 renal
A549 NSCLC = test system: A549 NSCLC
ACHN renal = test system: ACHN renal
BT-549 breast = test system: BT-549 breast
CAKI-1 renal = test system: CAKI-1 renal
CCRF-CEM leukemia = test system: CCRF-CEM leukemia
COLO 205 colon = test system: COLO 205 colon
DU-145 prostate = test system: DU-145 prostate
EKVX NSCLC = test system: EKVX NSCLC
HCC-2998 colon = test system: HCC-2998 colon
HCT-116 colon = test system: HCT-116 colon
HCT-15 colon = test system: HCT-15 colon
HL-60(TB) leukemia = test system: HL-60(TB) leukemia
HOP-62 NSCLC = test system: HOP-62 NSCLC
HOP-92 NSCLC = test system: HOP-92 NSCLC
HS 578T breast = test system: HS 578T breast
HT29 colon = test system: HT29 colon
IGROV1 ovarian = test system: IGROV1 ovarian
K-562 leukemia = test system: K-562 leukemia
KM12 colon = test system: KM12 colon
LOX IMVI melanoma = test system: LOX IMVI melanoma
M14 melanoma = test system: M14 melanoma
MALME-3M melanoma = test system: MALME-3M melanoma
MCF7 breast = test system: MCF7 breast
MDA-MB-231 breast = test system: MDA-MB-231 breast
MDA-MB-435 = test system: MDA-MB-435
MOLT-4 leukemia = test system: MOLT-4 leukemia
NCI-H226 lung = test system: NCI-H226 lung
NCI-H23 lung = test system: NCI-H23 lung
NCI-H460 lung = test system: NCI-H460 lung
NCI-H522 lung = test system: NCI-H522 lung
NCI/ADR-RES ovarian = test system: NCI/ADR-RES ovarian
OVCAR-3 ovarian = test system: OVCAR-3 ovarian
OVCAR-4 ovarian = test system: OVCAR-4 ovarian
OVCAR-5 ovarian = test system: OVCAR-5 ovarian
OVCAR-8 ovarian = test system: OVCAR-8 ovarian
PC-3 prostate = test system: PC-3 prostate
RPMI-8226 leukemia = test system: RPMI-8226 leukemia
SF-268 CNS = test system: SF-268 CNS
SF-295 CNS = test system: SF-295 CNS
SF-539 CNS = test system: SF-539 CNS
SK-MEL-2 melanoma = test system: SK-MEL-2 melanoma
SK-MEL-28 melanoma = test system: SK-MEL-28 melanoma
SK-MEL-5 melanoma = test system: SK-MEL-5 melanoma
SK-OV-3 ovarian = test system: SK-OV-3 ovarian
SN12C renal = test system: SN12C renal
SNB-19 CNS = test system: SNB-19 CNS
SNB-75 CNS = test system: SNB-75 CNS
SR leukemia = test system: SR leukemia
SW-620 colon = test system: SW-620 colon
T-47D breast = test system: T-47D breast
TK-10 renal = test system: TK-10 renal
U251 CNS = test system: U251 CNS
UACC-257 melanoma = test system: UACC-257 melanoma
UACC-62 melanoma = test system: UACC-62 melanoma
UO-31 renal = test system: UO-31 renal

Structure (SMILES): O=C(CCCCCCNC(=O)C(O)(O)C(F)(F)F)Nc1ncc(-c2ccc(Br)cc2)s1
- GI50 (786-0 renal): 1 µM
- TGI (786-0 renal): > 31.8 µM
- GI50 (A498 renal): 0.13 µM
- TGI (A498 renal): 1.65 µM
- GI50 (A549 NSCLC): 1.6 µM
- TGI (A549 NSCLC): > 31.8 µM
- GI50 (ACHN renal): 0.908 µM
- TGI (ACHN renal): 4.83 µM
- GI50 (BT-549 breast): 0.851 µM
- TGI (BT-549 breast): > 31.8 µM
- GI50 (CAKI-1 renal): 1.22 µM
- TGI (CAKI-1 renal): 16.8 µM
- GI50 (CCRF-CEM leukemia): 1.19 µM
- TGI (CCRF-CEM leukemia): > 31.8 µM
- GI50 (COLO 205 colon): 0.826 µM
- TGI (COLO 205 colon): 2.26 µM
- GI50 (DU-145 prostate): 1.11 µM
- TGI (DU-145 prostate): 6.41 µM
- GI50 (EKVX NSCLC): 1.33 µM
- TGI (EKVX NSCLC): > 31.8 µM
- GI50 (HCC-2998 colon): 1.36 µM
- TGI (HCC-2998 colon): 4.82 µM
- GI50 (HCT-116 colon): 0.273 µM
- TGI (HCT-116 colon): 6.73 µM
- GI50 (HCT-15 colon): 1.43 µM
- TGI (HCT-15 colon): 6.28 µM
- GI50 (HL-60(TB) leukemia): 1.62 µM
- TGI (HL-60(TB) leukemia): > 31.8 µM
- GI50 (HOP-62 NSCLC): 1.23 µM
- TGI (HOP-62 NSCLC): 9.1 µM
- GI50 (HOP-92 NSCLC): 0.199 µM
- TGI (HOP-92 NSCLC): 1.51 µM
- GI50 (HS 578T breast): 1.04 µM
- TGI (HS 578T breast): > 31.8 µM
- GI50 (HT29 colon): 0.735 µM
- TGI (HT29 colon): > 31.8 µM
- GI50 (IGROV1 ovarian): 0.846 µM
- TGI (IGROV1 ovarian): 4.51 µM
- GI50 (K-562 leukemia): 0.442 µM
- TGI (K-562 leukemia): > 31.8 µM
- GI50 (KM12 colon): 1.25 µM
- TGI (KM12 colon): 6.66 µM
- GI50 (LOX IMVI melanoma): 0.564 µM
- TGI (LOX IMVI melanoma): 1.36 µM
- GI50 (M14 melanoma): 1.47 µM
- TGI (M14 melanoma): > 31.8 µM
- GI50 (MALME-3M melanoma): 0.913 µM
- TGI (MALME-3M melanoma): > 31.8 µM
- GI50 (MCF7 breast): 1.3 µM
- TGI (MCF7 breast): > 31.8 µM
- GI50 (MDA-MB-231 breast): 0.607 µM
- TGI (MDA-MB-231 breast): 2 µM
- GI50 (MDA-MB-435): 1.04 µM
- TGI (MDA-MB-435): > 31.8 µM
- GI50 (MOLT-4 leukemia): 0.831 µM
- TGI (MOLT-4 leukemia): > 31.8 µM
- GI50 (NCI-H226 lung): 2.4 µM
- TGI (NCI-H226 lung): 14.4 µM
- GI50 (NCI-H23 lung): 1.21 µM
- TGI (NCI-H23 lung): 6.56 µM
- GI50 (NCI-H460 lung): 0.89 µM
- TGI (NCI-H460 lung): 8.2 µM
- GI50 (NCI-H522 lung): 1.45 µM
- TGI (NCI-H522 lung): 13.8 µM
- GI50 (NCI/ADR-RES ovarian): 1.35 µM
- TGI (NCI/ADR-RES ovarian): 7.11 µM
- GI50 (OVCAR-3 ovarian): 0.781 µM
- TGI (OVCAR-3 ovarian): 2.91 µM
- GI50 (OVCAR-4 ovarian): 2.48 µM
- TGI (OVCAR-4 ovarian): > 31.8 µM
- GI50 (OVCAR-5 ovarian): 0.686 µM
- TGI (OVCAR-5 ovarian): 5.57 µM
- GI50 (OVCAR-8 ovarian): 1.37 µM
- TGI (OVCAR-8 ovarian): > 31.8 µM
- GI50 (PC-3 prostate): 0.957 µM
- TGI (PC-3 prostate): > 31.8 µM
- GI50 (RPMI-8226 leukemia): 0.452 µM
- TGI (RPMI-8226 leukemia): > 31.8 µM
- GI50 (SF-268 CNS): 1.29 µM
- TGI (SF-268 CNS): 12.2 µM
- GI50 (SF-295 CNS): 0.628 µM
- TGI (SF-295 CNS): 1.51 µM
- GI50 (SF-539 CNS): 1.23 µM
- TGI (SF-539 CNS): > 31.8 µM
- GI50 (SK-MEL-2 melanoma): 1.36 µM
- TGI (SK-MEL-2 melanoma): 18.8 µM
- GI50 (SK-MEL-28 melanoma): 1.12 µM
- TGI (SK-MEL-28 melanoma): > 31.8 µM
- GI50 (SK-MEL-5 melanoma): 0.972 µM
- TGI (SK-MEL-5 melanoma): 3.43 µM
- GI50 (SK-OV-3 ovarian): 1.02 µM
- TGI (SK-OV-3 ovarian): 3.1 µM
- GI50 (SN12C renal): 1.25 µM
- TGI (SN12C renal): 18.7 µM
- GI50 (SNB-19 CNS): 1.32 µM
- TGI (SNB-19 CNS): 6.61 µM
- GI50 (SNB-75 CNS): 1.84 µM
- TGI (SNB-75 CNS): > 31.8 µM
- GI50 (SR leukemia): 0.478 µM
- TGI (SR leukemia): > 31.8 µM
- GI50 (SW-620 colon): 0.84 µM
- TGI (SW-620 colon): 3.1 µM
- GI50 (T-47D breast): 0.808 µM
- TGI (T-47D breast): 25.8 µM
- GI50 (TK-10 renal): 0.456 µM
- TGI (TK-10 renal): > 31.8 µM
- GI50 (U251 CNS): 0.83 µM
- TGI (U251 CNS): > 31.8 µM
- GI50 (UACC-257 melanoma): 1.92 µM
- TGI (UACC-257 melanoma): > 31.8 µM
- GI50 (UACC-62 melanoma): 0.675 µM
- TGI (UACC-62 melanoma): 2.38 µM
- GI50 (UO-31 renal): 0.745 µM
- TGI (UO-31 renal): 4.41 µM
